biological target: human capsaicin receptor (VR1) (Homo sapiens, UniProt Q8NER1); experiment: Capsaicin receptor binding assay ([3H]RTX competition, VR1-transfected HEK293 membranes)
Sequence (Q8NER1 whole entry): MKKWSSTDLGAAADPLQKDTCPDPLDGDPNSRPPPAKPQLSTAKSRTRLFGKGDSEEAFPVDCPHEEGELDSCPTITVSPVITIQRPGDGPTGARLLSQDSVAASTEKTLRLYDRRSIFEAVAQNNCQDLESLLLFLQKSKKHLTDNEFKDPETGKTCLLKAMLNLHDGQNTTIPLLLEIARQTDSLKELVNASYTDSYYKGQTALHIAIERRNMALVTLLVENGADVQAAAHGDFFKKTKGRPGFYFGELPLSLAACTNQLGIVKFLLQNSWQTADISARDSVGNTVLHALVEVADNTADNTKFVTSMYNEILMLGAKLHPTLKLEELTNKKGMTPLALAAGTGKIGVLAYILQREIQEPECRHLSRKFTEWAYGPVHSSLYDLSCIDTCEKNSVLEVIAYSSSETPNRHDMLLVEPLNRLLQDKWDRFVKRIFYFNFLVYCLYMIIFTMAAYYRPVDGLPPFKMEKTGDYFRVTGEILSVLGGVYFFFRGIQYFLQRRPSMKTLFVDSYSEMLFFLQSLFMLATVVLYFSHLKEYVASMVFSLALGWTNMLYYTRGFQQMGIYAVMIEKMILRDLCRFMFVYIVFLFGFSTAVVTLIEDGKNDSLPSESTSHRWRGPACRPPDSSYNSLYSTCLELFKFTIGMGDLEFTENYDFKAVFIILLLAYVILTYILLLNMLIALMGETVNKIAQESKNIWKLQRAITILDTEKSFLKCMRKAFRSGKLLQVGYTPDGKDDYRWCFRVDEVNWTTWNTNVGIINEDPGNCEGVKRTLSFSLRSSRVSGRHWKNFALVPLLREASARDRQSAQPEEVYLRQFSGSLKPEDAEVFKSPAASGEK

Row | SMILES | Ki
1 | CN1CCC(NC(=O)c2nc(Nc3ccc(C(F)(F)F)cc3)c3ccc(-c4ncccc4C(F)(F)F)nc3n2)CC1 [Compound 448, 4-(4-Trifluoromethyl-phenylamino)-7-(3-trifluoromethyl-pyridin-2-yl)-pyrido[2,3-d]pyrimidine-2-carboxylic acid (1-methyl-piperidin-4-yl)-amide] | < 1000 nM
2 | CNC(=O)c1nc(Nc2ccc(C(F)(F)F)cc2)c2ccc(-c3ncccc3C(F)(F)F)nc2n1 [Compound 449, 4-(4-Trifluoromethyl-phenylamino)-7-(3-trifluoromethyl-pyridin-2-yl)-pyrido[2,3-d]pyrimidine-2-carboxylic acid methylamide] | < 1000 nM
3 | CCNC(=O)c1nc(Nc2ccc(C(F)(F)F)cc2)c2ccc(-c3ncccc3C(F)(F)F)nc2n1 [Compound 450, 4-(4-Trifluoromethyl-phenylamino)-7-(3-trifluoromethyl-pyridin-2-yl)-pyrido[2,3-d]pyrimidine-2-carboxylic acid ethylamide] | < 1000 nM
4 | C=CCNC(=O)c1nc(Nc2ccc(C(F)(F)F)cc2)c2ccc(-c3ncccc3C(F)(F)F)nc2n1 [Compound 451, 4-(4-Trifluoromethyl-phenylamino)-7-(3-trifluoromethyl-pyridin-2-yl)-pyrido[2,3-d]pyrimidine-2-carboxylic acid allylamide] | < 1000 nM
5 | CCCNC(=O)c1nc(Nc2ccc(C(F)(F)F)cc2)c2ccc(-c3ncccc3C(F)(F)F)nc2n1 [Compound 452, 4-(4-Trifluoromethyl-phenylamino)-7-(3-trifluoromethyl-pyridin-2-yl)-pyrido[2,3-d]pyrimidine-2-carboxylic acid propylamide] | < 1000 nM
6 | O=C(NCC1CC1)c1nc(Nc2ccc(C(F)(F)F)cc2)c2ccc(-c3ncccc3C(F)(F)F)nc2n1 [Compound 453, 4-(4-Trifluoromethyl-phenylamino)-7-(3-trifluoromethyl-pyridin-2-yl)-pyrido[2,3-d]pyrimidine-2-carboxylic acid cyclopropylmethyl-amide] | < 1000 nM
7 | CCOCCNC(=O)c1nc(Nc2ccc(C(F)(F)F)cc2)c2ccc(-c3ncccc3C(F)(F)F)nc2n1 [Compound 454, 4-(4-Trifluoromethyl-phenylamino)-7-(3-trifluoromethyl-pyridin-2-yl)-pyrido[2,3-d]pyrimidine-2-carboxylic acid (2-ethoxy-ethyl)-amide] | < 1000 nM
8 | COCCNC(=O)c1nc(Nc2ccc(C(F)(F)F)cc2)c2ccc(-c3ncccc3C(F)(F)F)nc2n1 [Compound 455, 4-(4-Trifluoromethyl-phenylamino)-7-(3-trifluoromethyl-pyridin-2-yl)-pyrido[2,3-d]pyrimidine-2-carboxylic acid (2-methoxy-ethyl)-amide] | < 1000 nM
9 | COCCCNC(=O)c1nc(Nc2ccc(C(F)(F)F)cc2)c2ccc(-c3ncccc3C(F)(F)F)nc2n1 [Compound 456, 4-(4-Trifluoromethyl-phenylamino)-7-(3-trifluoromethyl-pyridin-2-yl)-pyrido[2,3-d]pyrimidine-2-carboxylic acid (3-methoxy-propyl)-amide] | < 1000 nM
10 | O=C(NCC1CCCO1)c1nc(Nc2ccc(C(F)(F)F)cc2)c2ccc(-c3ncccc3C(F)(F)F)nc2n1 (centres unmarked) [Compound 457, 4-(4-Trifluoromethyl-phenylamino)-7-(3-trifluoromethyl-pyridin-2-yl)-pyrido[2,3-d]pyrimidine-2-carboxylic acid (tetrahydro-furan-2-ylmethyl)-amide] | < 1000 nM
11 | CC(C)(C)CNC(=O)c1nc(Nc2ccc(C(F)(F)F)cc2)c2ccc(-c3ncccc3C(F)(F)F)nc2n1 [Compound 458, 4-(4-Trifluoromethyl-phenylamino)-7-(3-trifluoromethyl-pyridin-2-yl)-pyrido[2,3-d]pyrimidine-2-carboxylic acid (2,2-dimethyl-propyl)-amide] | < 1000 nM
12 | O=C(c1nc(Nc2ccc(C(F)(F)F)cc2)c2ccc(-c3ncccc3C(F)(F)F)nc2n1)N1CCCC1 [Compound 459, Pyrrolidin-1-yl-[4-(4-trifluoromethyl-phenylamino)-7-(3-trifluoromethyl-pyridifl-2-yl)-pyrido[2,3-d]pyrimidin-2-yl]-methanone] | < 1000 nM
13 | O=C(c1nc(Nc2ccc(C(F)(F)F)cc2)c2ccc(-c3ncccc3C(F)(F)F)nc2n1)N1CCCCC1 [Compound 460, Piperidin-1-yl-[4-(4-trifluoromethyl-phenylamino)-7-(3-trifluorornethyl-pyridin-2-yl)-pyrido[2,3-d]pyrimidin-2-yl]-methanone] | < 1000 nM
14 | O=C(c1nc(Nc2ccc(C(F)(F)F)cc2)c2ccc(-c3ncccc3C(F)(F)F)nc2n1)N1CCOCC1 [Compound 461, Morpholin-4-yl-[4-(4-trifluoromethyl-phenylamino)-7-(3-trifluoromethyl-pyridin-2-yl)-pyrido[2,3-d]pyrimidin-2-yl]-methanone] | < 1000 nM
15 | CC1CCN(C(=O)c2nc(Nc3ccc(C(F)(F)F)cc3)c3ccc(-c4ncccc4C(F)(F)F)nc3n2)CC1 [Compound 462, (4-Methyl-piperidin-1-yl)-[4-(4-trifluoromethyl-phenylamino)-7-(3-trifluoromethyl-pyridin-2-yl)-pyrido[2,3-d]pyrimidin-2-yl]-methanone] | < 1000 nM
16 | O=C(c1nc(Nc2ccc(C(F)(F)F)cc2)c2ccc(-c3ncccc3C(F)(F)F)nc2n1)N1CCSCC1 [Compound 463, Thiomorpholin-4-yl-[4-(4-trifluoromethyl-phenylamino)-7-(3-trifluoromethyl-pyridin-2-yl)-pyrido[2,3-d]pyrimidin-2-yl]-methanone] | < 1000 nM

Further lines, results first:

Row | Ki | SMILES
17 | < 1000 nM | C=CCN(C)C(=O)c1nc(Nc2ccc(C(F)(F)F)cc2)c2ccc(-c3ncccc3C(F)(F)F)nc2n1 [Compound 464, 4-(4-Trifluoromethyl-phenylamino)-7-(3-trifluoromethyl-pyridin-2-yl)-pyrido[2,3-d]pyrimidine-2-carboxyiic acid allyl-methyl-amide]
18 | < 1000 nM | C=CCN(CC=C)C(=O)c1nc(Nc2ccc(C(F)(F)F)cc2)c2ccc(-c3ncccc3C(F)(F)F)nc2n1 [Compound 465, 4-(4-Trifluoromethyl-phenylamino)-7-(3-trifluoromethyl-pyridin-2-yl)-pyrido[2,3-d]pyrimidine-2-carboxylic acid diallylamide]
19 | < 1000 nM | CCCN(CCC)C(=O)c1nc(Nc2ccc(C(F)(F)F)cc2)c2ccc(-c3ncccc3C(F)(F)F)nc2n1 [Compound 466, 4-(4-Trifluoromethyl-phenylamino)-7-(3-trifluoromethyl-pyridin-2-yl)-pyrido[2,3-d]pyrimidine-2-carboxylic acid dipropylamide]
20 | < 1000 nM | CN(C)C(=O)c1nc(Nc2ccc(C(F)(F)F)cc2)c2ccc(-c3ncccc3C(F)(F)F)nc2n1 [Compound 467, 4-(4-Trifluoromethyl-phenylamino)-7-(3-trifluoromethyl-pyridin-2-yl)-pyrido[2,3-d]pyrimidine-2-carboxylic acid dimethylamide]
21 | < 1000 nM | CC1(C)CCCC(NC(=O)c2nc(Nc3ccc(C(F)(F)F)cc3)c3ccc(-c4ncccc4C(F)(F)F)nc3n2)C1 (centres unmarked) [Compound 468, 4-(4-Trifluoromethyl-phenylamino)-7-(3-trifluoromethyl-pyridin-2-yl)-pyrido[2,3-d]pyrimidine-2-carboxylic acid (3,3-dimethyl-cyclohexyl)-amide]
22 | < 1000 nM | COCCN(CCOC)C(=O)c1nc(Nc2ccc(C(F)(F)F)cc2)c2ccc(-c3ncccc3C(F)(F)F)nc2n1 [Compound 469, 4-(4-Trifluoromethyl-phenylamino)-7-(3-trifluoromethyl-pyridin-2-yl)-pyrido[2,3-d]pyrimidine-2-carboxylic acid bis-(2-methoxy-ethyl)-amide]
23 | < 1000 nM | CC1CC(C)CC(NC(=O)c2nc(Nc3ccc(C(F)(F)F)cc3)c3ccc(-c4ncccc4C(F)(F)F)nc3n2)C1 (centres unmarked) [Compound 470, 4-(4-Trifluoromethyl-phenylamino)-7-(3-trifluoromethyl-pyridin-2-yl)-pyrido[2,3-d]pyrimidine-2-carboxylic acid (3,5-dimethyl-cyclohexyl)-amide]
24 | < 1000 nM | CC(C)N1CCN(C(=O)c2nc(Nc3ccc(C(F)(F)F)cc3)c3ccc(-c4ncccc4C(F)(F)F)nc3n2)CC1 [Compound 471, (4-Isopropyl-piperazin-1-yl)-[4-(4-trifluoromethyl-phenylamino)-7-(3-trifluoromethyl-pyridin-2-yl)-pyrido[2,3-d]pyrimidin-2-yl]-methanone]
25 | < 1000 nM | CN1CCN(C(=O)c2nc(Nc3ccc(C(F)(F)F)cc3)c3ccc(-c4ncccc4C(F)(F)F)nc3n2)CC1 [Compound 472, (4-Methyl-piperazin-1-yl)-[4-(4-trifluoromethyl-phenylamino)-7-(3-trifluoromethyl-pyridin-2-yl)-pyrido[2,3-d]pyrimidin-2-yl]-methanone]
26 | < 1000 nM | O=C(c1nc(Nc2ccc(C(F)(F)F)cc2)c2ccc(-c3ncccc3C(F)(F)F)nc2n1)N1CCN(C2CCCC2)CC1 [Compound 473, (4-Cyclopentyl-piperazin-1-yl)-[4-(4-trifluoromethyl-phenylamino)-7-(3-trifluoromethyl-pyridin-2-yl)-pyrido[2,3-d]pyrimidin-2-yl]-methanone]
27 | < 1000 nM | O=C(c1nc(Nc2ccc(C(F)(F)F)cc2)c2ccc(-c3ncccc3C(F)(F)F)nc2n1)N1CCN(C2CCCCCC2)CC1 [Compound 474, (4-Cycloheptyl-piperazin-1-yl)-[4-(4-trifluoromethyl-phenylamino)-7-(3-trifluoromethyl-pyridin-2-yl)-pyrido[2,3-d]pyrimidin-2-yl]-methanone]
28 | < 1000 nM | CC(C)(C)c1ccc(Nc2nc(CN3CCCC3)nc3cc(-c4ncccc4C(F)(F)F)ccc23)cc1 [Compound 475, (4-tert-Butyl-phenyl)-[2-pyrrolidin-1-ylmethyl-7-(3-trifluoromethyl-pyridin-2-yl)-quinazolin-4-yl]-amine]
29 | < 1000 nM | CC(C)(C)c1ccc(Nc2nc(CN3CCCCC3)nc3cc(-c4ncccc4C(F)(F)F)ccc23)cc1 [Compound 476, (4-tert-Butyl-phenyl)-[2-piperidin-1-ylmethyl-7-(3-trifluoromethyl-pyridin-2-yl)-quinazolin-4-yl]-amine]

— patent US20040156869A1, “2-substituted quinazolin-4-ylamine analogues” (Neurogen Corporation, priority 2002, published 2004)
